Experimental data: article PMC12542672, “Pleiotropic role of PAX cyclolipopeptides in the Xenorhabdus bacterium mutualistically associated with entomopathogenic nematodes” (Applied and Environmental Microbiology, 2025)
≈ marks a conversion by molar mass, not a printed value. Like-named read-outs stand apart in the source and are kept apart here. Where a SMILES comes first, the peptide text is derived from it. Bridges are numbered along the chain shown (N, C = ends). Where no end group is shown, it is not given here. [ ]: non-standard residue; d: D form. The star is where a group is joined. Hexadecanoyl(3R-OH) = CCCCCCCCCCCCC[C@@H](O)CC(=O)*; Tetradecanoyl(3R-OH) = CCCCCCCCCCC[C@@H](O)CC(=O)*; X1 = CC[C@H](C)CCCCC(=O)*; Dab = NCC[C@H](N)C(=O)O

Assays:
X. nematophila WT = type: cell-based, Xenorhabdus nematophila F1
Experimental: (§1) Bacteria were routinely grown in Lysogeny Broth (Sigma-Aldrich) medium at 28°C (Xenorhabdus, S. maltophilia, P. protegens, Ochrobactrum sp., Achromobacter sp., A. faecalis, Pseudochrobactrum sp., Brevundimonas sp., E. mundtii, and D. rugosa) or 37°C (Escherichia coli and M. luteus). When required, antibiotics were used at the following final concentrations: gentamicin (Sigma-Aldrich), 20 µg mL^−1 and chloramphenicol (Sigma-Aldrich), 20 µg mL^−1 for E. coli strains and 15 µg mL^−1 for X. nematophila (or 8 µg mL^−1 for allelic exchange).
(§2) MICs were determined in accordance with CLSI guidelines ([73]) with the following modifications: 5 mL of MHB broth (Bio-Rad) was inoculated with an overnight culture in LB broth and grown to a 0.6 < OD600 < 0.9. The inoculum for the microplate was prepared as described in the CLSI guide, with dilution in MHB to approximately 10^4 CFU mL^−1. Ninety-six-well low-binding plates were incubated for 48 h at 28°C with slow shaking. The peptides used in the analyses were supplied by the following providers: cecropin A (Sigma-Aldrich), cecropin B1 (NeoMPS S.A.) ([74]), cecropin C (Proteogenix), cecropin P1 (Sigma-Aldrich), drosocin (Eurogentec), colistin (Sigma-Aldrich), polymyxin B (Sigma-Aldrich), and NOSO 95C (odilorhabdin, Nosopharm S.A.). Synthetic PAX1′, PAX2′, and PAX7 were provided by the SynBio3 platform (IBMM, Montpellier, France), and their structure is shown in Fig. S1.

X. nematophila ∆paxA = type: cell-based, Xenorhabdus nematophila F1; conditions: CLSI with modifications, MHB broth, approx. 10^4 CFU mL^−1, 96-well low-binding plates, 48 h at 28°C, slow shaking
Experimental: as §1
The ΔpaxA mutant was constructed using the same experimental strategy as for the construction of the ΔngrA mutant from the WT strain X. nematophila F1 ([37]). The upstream and downstream regions of the paxA gene were amplified by PCR with the L-PCR1-paxA-SalI and R-PCR1-paxA-BamHI primers for the upstream region (621 bp) and the L-PCR2-paxA-BamHI and R-PCR2-paxA-SpeI primers for the downstream region (601 bp). The two fragments obtained were inserted, together with the 3.8 kb BamHI fragment ΩCam cassette from pHP45-ΩCm, conferring resistance to chloramphenicol, into pJQ200SK digested with SalI and SpeI for insertion of the ΩCam cassette between the two PCR fragments. The resulting plasmid, pJQ-paxA::ΩCm, was used to transform E. coli WM3064 and was introduced into X. nematophila F1 by mating. Allelic exchange was performed as previously described ([68]). ΩCam insertion was confirmed by PCR analysis using primers L-paxTA and R-verif-pax. The absence of PAX peptide products was assessed by mass spectrometry analysis, as described below. The clone obtained was called ΔpaxA.
as §2

X. nematophila ∆ngrA = experiment: MIC assay of antimicrobial peptides on X. nematophila ∆ngrA; type: cell-based, Xenorhabdus nematophila F1; conditions: CLSI with modifications, MHB broth, approx. 10^4 CFU mL^−1, 96-well low-binding plates, 48 h at 28°C, slow shaking
Experimental: as §1, §2

Ochrobactrum sp. ALL4 = type: cell-based; conditions: 48 h
Experimental: as §1, §2

[1] = system: Stenotrophomonas maltophilia ALL5; type: cell-based; conditions: 48 h
Experimental: as §1, §2

Diutina rugosa GC = type: cell-based; conditions: 48 h
Experimental: as §1, §2

Achromobacter sp. D7.1 = type: cell-based; conditions: 48 h
Experimental: as §1, §2

Brevundimonas sp. ALL3 = type: cell-based; conditions: 48 h
Experimental: as §1, §2

Enterococcus mundtii SP = type: cell-based; conditions: 48 h
Experimental: as §1, §2

[2] = system: Micrococcus luteus CIP103430; type: cell-based; conditions: CIP103430, 48 h
Experimental: as §1, §2

[3] = system: Pseudochrobactrum sp. AL3; type: cell-based; conditions: 48 h
Experimental: as §1, §2

[4] = system: Pseudomonas protegens PPSC10; type: cell-based; conditions: 48 h
Experimental: as §1, §2

Alcaligenes faecalis SC = type: cell-based; conditions: 48 h
Experimental: as §1, §2

[5] = X. nematophila WT, CLSI with modifications, MHB broth, approx. 10^4 CFU mL^−1, 96-well low-binding plates, 48 h at 28°C, slow shaking

| Compound | Minimum inhibitory concentration (X. nematophila WT; [5]) [µg/mL] | Minimum inhibitory concentration (X. nematophila ∆paxA) [µg/mL] | Minimum inhibitory concentration (X. nematophila ∆ngrA) [µg/mL] | Minimum inhibitory concentration (X. nematophila WT; 48 h) | Minimum inhibitory concentration (Ochrobactrum sp. ALL4) [µg/mL] | Minimum inhibitory concentration [1] [µg/mL] | Minimum inhibitory concentration (Diutina rugosa GC) [µg/mL] | Minimum inhibitory concentration (Achromobacter sp. D7.1) [µg/mL] | Minimum inhibitory concentration (Brevundimonas sp. ALL3) [µg/mL] | Minimum inhibitory concentration (Enterococcus mundtii SP) [µg/mL] | Minimum inhibitory concentration [2] [µg/mL] | Minimum inhibitory concentration [3] [µg/mL] | Minimum inhibitory concentration [4] [µg/mL] | Minimum inhibitory concentration (Alcaligenes faecalis SC) [µg/mL] |
| --- | --- | --- | --- | --- | --- | --- | --- | --- | --- | --- | --- | --- | --- | --- |
| CC[C@H](C)CCCCC(=O)N[C@@H](CCN)C(=O)N[C@H](C(=O)N[C@@H](CCN)C(=O)N[C@H]1CCNC(=O)[C@H]([C@@H](C)O)NC(=O)[C@H](CCN)NC(=O)[C@H](CCN)NC(=O)[C@H](CC(C)C)NC(=O)[C@@H](Cc2ccccc2)NC(=O)[C@H](CCN)NC1=O)[C@@H](C)O [Polymyxin B, polymyxin B] (X1-[Dab]T[Dab][Dab][Dab][dF]L[Dab][Dab]T; lactam 4-C (inferred); N-terminus assumed) | 0.245 (≈ 0.204 µM) | 0.245 (≈ 0.204 µM) | 0.245 (≈ 0.204 µM) |  |  |  |  |  |  |  |  |  |  |  |
| SWLSKTAKKLENSAKKRISEGIAIAIQGGPR [Cecropin P1, cecropin P1] | >12.5 |  | 12.5 |  |  |  |  |  |  |  |  |  |  |  |
| CCCCCCCCCCC[C@@H](O)CC(=O)NCC(=O)N[C@@H](CCCCN)C(=O)N[C@@H]1CCCCNC(=O)[C@H](CCCCN)NC(=O)[C@@H](CCCCN)NC(=O)[C@@H](CCCCN)NC(=O)[C@H](CCCCN)NC1=O [Synthetic PAX1′] ({Tetradecanoyl(3R-OH)}-GK[dK]K[dK][dK]K; lactam 3-C (inferred)) |  |  |  | >1,500 µg mL^−1 | > 250 | > 250 | 25 (≈ 23.8 µM) | > 250 | 31.25 (≈ 29.7 µM) | 125 (≈ 119 µM) | 3.9 (≈ 3.71 µM) | > 250 | > 250 | > 250 |
| CCCCCCCCCCCCC[C@@H](O)CC(=O)NCC(=O)N[C@@H](CCCCN)C(=O)N[C@@H]1CCCCNC(=O)[C@H](CCCCN)NC(=O)[C@@H](CCCCN)NC(=O)[C@@H](CCCCN)NC(=O)[C@H](CCCCN)NC1=O [Synthetic PAX7] ({Hexadecanoyl(3R-OH)}-GK[dK]K[dK][dK]K; lactam 3-C (inferred)) | 187.5 (≈ 174 µM) |  | 375 (≈ 347 µM) |  | 62.5 (≈ 57.8 µM) | 125 (≈ 116 µM) | 62.5 (≈ 57.8 µM) | 62.5 (≈ 57.8 µM) | 31.25 (≈ 28.9 µM) | 15.63 (≈ 14.5 µM) | 0.49 (≈ 0.453 µM) | 62.5 (≈ 57.8 µM) | 62.5 (≈ 57.8 µM) | 125 (≈ 116 µM) |
| CC[C@H](C)CCCCC(=O)N[C@@H](CCN)C(=O)N[C@H](C(=O)N[C@@H](CCN)C(=O)N[C@H]1CCNC(=O)[C@H]([C@@H](C)O)NC(=O)[C@H](CCN)NC(=O)[C@H](CCN)NC(=O)[C@H](CC(C)C)NC(=O)[C@@H](CC(C)C)NC(=O)[C@H](CCN)NC1=O)[C@@H](C)O [Colistin, colistin] (X1-[Dab]T[Dab][Dab][Dab][dL]L[Dab][Dab]T; lactam 4-C (inferred); N-terminus assumed) | 3.9 (≈ 3.33 µM) | 1.95 (≈ 1.67 µM) | 3.9 (≈ 3.33 µM) |  |  |  |  |  |  |  |  |  |  |  |
| cecropin B1 | 6.25 | 6.25 | 6.25 |  |  |  |  |  |  |  |  |  |  |  |
| CCCCCCCCCCC[C@@H](O)CC(=O)NCC(=O)N[C@@H](CCCNC(=N)N)C(=O)N[C@@H]1CCCCNC(=O)[C@H](CCCCN)NC(=O)[C@@H](CCCCN)NC(=O)[C@@H](CCCCN)NC(=O)[C@H](CCCCN)NC1=O [Synthetic PAX2′] ({Tetradecanoyl(3R-OH)}-GR[dK]K[dK][dK]K; lactam 3-C (inferred)) |  | 375 (≈ 347 µM) | 375 (≈ 347 µM) | 187.5 µg/mL (≈ 174 µM) | 62.5 (≈ 57.8 µM) | 125 (≈ 116 µM) | 62.5 (≈ 57.8 µM) | 62.5 (≈ 57.8 µM) | 62.5 (≈ 57.8 µM) | 31.25 (≈ 28.9 µM) | 1.95 (≈ 1.8 µM) | 125 (≈ 116 µM) | 125 (≈ 116 µM) | 125 (≈ 116 µM) |
| cecropin C | 12.5 | 12.5 | 25 |  |  |  |  |  |  |  |  |  |  |  |
| GKPRPYSPRPTSHPRPIRV [Drosocin, drosocin] |  |  |  | >50 µg/mL |  |  |  |  |  |  |  |  |  |  |
